Reference: article PMC11173529, “Structure–Activity Relationship Studies in a Series of Xanthine Inhibitors of SLACK Potassium Channels” (Molecules, 2024)

What was measured:
mouse WT SLACK = biological target: T1, mouse WT SLACK (Mus musculus, UniProt Q6ZPR4); assay: Whole-cell APC in CHO cells stably expressing mouse WT SLACK; format: cell-based; settings: for IC50: APC, CHO cells; for Imax: maximum inhibition at 30 µM standardized to VU0606170 (100%)
T1 construct: expressed in transfected cells; host or cells: CHO
T1 sequence (Q6ZPR4 1-1224): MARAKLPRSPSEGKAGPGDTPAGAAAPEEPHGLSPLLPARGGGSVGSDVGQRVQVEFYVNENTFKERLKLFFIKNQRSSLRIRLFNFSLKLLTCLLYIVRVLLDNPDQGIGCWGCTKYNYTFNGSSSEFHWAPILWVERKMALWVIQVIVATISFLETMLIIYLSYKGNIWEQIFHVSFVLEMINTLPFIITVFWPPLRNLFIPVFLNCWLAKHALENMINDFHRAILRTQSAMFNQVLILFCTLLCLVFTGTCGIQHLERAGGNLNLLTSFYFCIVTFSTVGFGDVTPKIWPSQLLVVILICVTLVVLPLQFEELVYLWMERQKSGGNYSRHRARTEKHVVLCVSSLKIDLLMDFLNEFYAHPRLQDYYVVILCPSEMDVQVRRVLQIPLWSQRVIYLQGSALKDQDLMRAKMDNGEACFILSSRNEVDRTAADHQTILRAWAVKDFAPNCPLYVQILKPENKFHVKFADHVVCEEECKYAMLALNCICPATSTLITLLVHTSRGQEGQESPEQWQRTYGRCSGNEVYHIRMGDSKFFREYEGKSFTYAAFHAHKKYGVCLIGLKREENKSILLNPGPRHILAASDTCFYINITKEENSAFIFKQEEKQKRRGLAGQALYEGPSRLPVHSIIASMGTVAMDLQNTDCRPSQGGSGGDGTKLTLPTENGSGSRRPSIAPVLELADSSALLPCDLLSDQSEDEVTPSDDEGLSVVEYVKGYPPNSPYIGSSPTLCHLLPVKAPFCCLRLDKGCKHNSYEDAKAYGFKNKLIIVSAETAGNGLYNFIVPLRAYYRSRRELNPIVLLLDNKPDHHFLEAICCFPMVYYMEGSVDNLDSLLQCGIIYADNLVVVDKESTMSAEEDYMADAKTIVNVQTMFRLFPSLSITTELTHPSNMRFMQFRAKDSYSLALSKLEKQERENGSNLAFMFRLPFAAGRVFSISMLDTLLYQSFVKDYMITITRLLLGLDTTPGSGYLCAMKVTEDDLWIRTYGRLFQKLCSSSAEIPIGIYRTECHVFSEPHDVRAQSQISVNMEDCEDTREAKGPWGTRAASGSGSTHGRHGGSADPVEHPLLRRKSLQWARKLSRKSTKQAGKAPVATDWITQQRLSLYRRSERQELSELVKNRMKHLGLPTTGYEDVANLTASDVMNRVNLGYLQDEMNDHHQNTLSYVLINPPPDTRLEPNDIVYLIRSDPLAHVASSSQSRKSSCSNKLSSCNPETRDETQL
Description: Development of a useful SLACK inhibitor in vivo tool will require potent activity at the corresponding mouse ortholog as studies in appropriate mouse models will be critical. Thus, we evaluated analogs 32 and 48 in our APC assay using CHO cells stably expressing mouse WT SLACK (Table 6). […] We were also eager to evaluate the same compounds with regard to their ability to inhibit clinically relevant GOF SLACK mutants. Both the C-terminus A934T mutant and transmembrane G288S mutant have been associated with clinical cases of EIMFS [3, 7].
Automated patch-clamp recording was performed with a SyncroPatch 768 PE system (Nanion, Munich, Germany) as previously described. Whole-cell recordings were performed at room temperature. Cells were harvested by first washing with PBS without Mg^2+ or Ca^2+ (Gibco, Billings, MT, USA) to remove cell culture media, followed by dissociation with TryPLE (Gibco, Billings, MT, USA). Cells were then resuspended and diluted to 100,000 cells/mL in external solution. External solution contained 105 mM NaCl, 4 mM KCl, 1 mM MgCl2, 5 mM CaCl2, 10 mM HEPES, and 40 mM N-Methyl-D-glucamine chloride, titrated to pH of 7.4 and osmolarity of 300 mOsm/kg; internal solution contained 70 mM NaCl, 70 mM KF, 10 mM KCl, 5 mM EGTA, and 5 mM HEPES, titrated to a pH of 7.2 and osmolarity of 295 mOsm/kg.
The APC protocol was set as follows: Cells were held at a […] of −80 mV for 100 ms, then a ramp protocol was performed from −100 mV to 80 mV at 0.4 mV/ms, followed by holding the cell at −80 mV for another 100 ms, then steps were performed at −20 mV, 0 mV, +20 mV, +40 mV, and +60 mV for 100 ms of each step. Whole-cell currents were measured at 0 mV and normalized to current after external buffer addition. […] To obtain the concentration-response relationship graphs and IC50 values, we take the median value of the last 7 current amplitude values obtained for each set of data points collected for a given concentration at a particular step.

WT hSLACK = WT hSLACK (Homo sapiens, UniProt Q5JUK3); assay: Whole-cell automated patch-clamp (APC) in CHO cells stably expressing WT hSLACK; format: cell-based; settings: range across the three variants, APC; read-out: IC50 values across WT, A934T, and G288S SLACK
Outline: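 CHO-K1 cells stably expressing human SLACK were whole-cell recorded at room temperature with Na/NMDG external solution pH 7.4 and KF-based internal pH 7.2. Concentrations 0.125–30 μM in half-log steps, ≥3 cells each; ramp and step protocol from −80 mV holding, current at 0 mV normalized to post-buffer current, IC50 from median of last 7 amplitudes.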

WT hSLACK, sequence (Q5JUK3 whole entry): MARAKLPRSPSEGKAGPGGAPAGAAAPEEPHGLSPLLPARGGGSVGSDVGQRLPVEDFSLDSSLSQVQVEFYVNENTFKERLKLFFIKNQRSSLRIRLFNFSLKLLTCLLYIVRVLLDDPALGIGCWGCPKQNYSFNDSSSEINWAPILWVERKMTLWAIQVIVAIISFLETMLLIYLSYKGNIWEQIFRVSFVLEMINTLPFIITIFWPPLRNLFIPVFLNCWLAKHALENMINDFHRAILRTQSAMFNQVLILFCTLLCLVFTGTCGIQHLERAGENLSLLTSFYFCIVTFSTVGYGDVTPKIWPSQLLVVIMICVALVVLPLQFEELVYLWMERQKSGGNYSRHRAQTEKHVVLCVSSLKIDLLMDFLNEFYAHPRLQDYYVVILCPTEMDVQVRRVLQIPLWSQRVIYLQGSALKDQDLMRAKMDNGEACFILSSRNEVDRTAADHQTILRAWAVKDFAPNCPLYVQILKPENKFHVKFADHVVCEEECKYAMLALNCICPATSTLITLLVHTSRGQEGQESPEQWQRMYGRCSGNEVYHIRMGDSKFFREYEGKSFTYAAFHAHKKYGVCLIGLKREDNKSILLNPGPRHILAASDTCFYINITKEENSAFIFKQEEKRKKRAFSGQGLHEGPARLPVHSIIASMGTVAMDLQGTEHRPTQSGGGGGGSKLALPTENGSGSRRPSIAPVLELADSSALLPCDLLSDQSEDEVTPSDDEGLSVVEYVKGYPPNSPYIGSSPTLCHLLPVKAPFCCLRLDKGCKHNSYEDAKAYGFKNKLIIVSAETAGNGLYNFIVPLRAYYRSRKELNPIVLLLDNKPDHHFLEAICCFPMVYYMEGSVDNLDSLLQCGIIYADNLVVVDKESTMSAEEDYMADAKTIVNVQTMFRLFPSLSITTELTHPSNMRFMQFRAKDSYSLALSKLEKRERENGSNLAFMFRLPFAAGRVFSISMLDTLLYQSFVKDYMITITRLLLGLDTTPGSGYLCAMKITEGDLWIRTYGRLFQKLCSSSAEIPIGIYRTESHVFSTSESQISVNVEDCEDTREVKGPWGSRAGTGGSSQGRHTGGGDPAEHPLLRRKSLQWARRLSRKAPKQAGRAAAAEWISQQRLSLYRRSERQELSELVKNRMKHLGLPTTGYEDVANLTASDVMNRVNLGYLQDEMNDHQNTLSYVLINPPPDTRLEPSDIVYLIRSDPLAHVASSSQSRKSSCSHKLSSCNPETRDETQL

IC50 (WT hSLACK) [nM] | Structure (SMILES) | IC50 (mouse WT SLACK) [nM] | Imax (mouse WT SLACK) [%]
 | COc1cccc(Cn2c(=O)c3c(nc(N(C)Cc4ccccc4)n3C)n(C)c2=O)c1 [Analog 32] | 1400 | 100
 | CN(Cc1cccc(F)c1)c1nc2c(c(=O)n(Cc3ccccc3)c(=O)n2C)n1C [Analog 48] | 1300 | 100
590 to 710 | CCCCN(Cc1ccc(F)cc1)c1nc2c(c(=O)n(Cc3cccc(OC)c3)c(=O)n2C)n1C [Analog 80] |  | 
